Active and inactive are the calls of the source. The rule behind the calls is not given here.

For assay [1], the system named is Streptococcus pneumoniae. Kind of assay: Antibacterial activity against low dose 5 x 10^6 CFU Streptococcus pneumoniae serotype 2 infected in semitherapeutic C57BL/6 mouse model assessed as reduction of bacteremia at 6 mg/kg, ip measured after 10 day post infection. It is filed as functional, organism-based. On the set-up: dose 6 mg/kg.
For assay [2], the system named is Streptococcus pneumoniae. Kind of assay: Antibacterial activity against low dose 5 x 10^6 CFU Streptococcus pneumoniae serotype 19 infected in semitherapeutic C57BL/6 mouse model assessed as bacteremic mouse at 6 mg/kg, ip measured after 10 day post infection. The class given is functional, organism-based. Further details: dose 6 mg/kg.

On to `CCCCCCCCCC(=O)N[C@@H](Cc1c[nH]c2ccccc12)C(=O)N[C@H](CC(N)=O)C(=O)N[C@@H](CC(=O)O)C(=O)N[C@@H]1C(=O)NCC(=O)N[C@@H](CCCN)C(=O)N[C@@H](CC(=O)O)C(=O)N[C@H](C)C(=O)N[C@@H](CC(=O)O)C(=O)NCC(=O)N[C@H](CO)C(=O)N[C@@H]([C@H](C)CC(=O)O)C(=O)N[C@@H](CC(=O)c2ccccc2N)C(=O)O[C@@H]1C`, for which the outcome in assay [1] and in assay [2] was Active.

The values above are taken from ChEMBL document CHEMBL1240356, “Efficacy profiles of daptomycin for treatment of invasive and noninvasive pulmonary infections with Streptococcus pneumoniae” (2010).
